Results as given in BindingDB's records for doi:10.1016/j.bmcl.2015.04.102 (Arena Pharmaceuticals, 2015).

Test: Displacement of [3H]-Astemizole from human ERG

Q: With C[C@@H](OC(=O)N1CCC(O[C@H]2CC[C@H](Oc3cnc(S(C)(=O)=O)cn3)CC2)CC1)C(F)(F)F as the molecule, how does the IC50 read?
A: The IC50 was greater than 1000 µM.
